Assay: In vitro permeation studies in static vertical Franz cells, microneedle systems pressed into dermatomized minipig skin
Format: in vitro ADME, Göttingen Minipigs
Excerpt: The back part of Gottinger Minipighaut (Ellegaard Göttingen Minipigs Agricultural Service, Dalmose, Denmark) was used as the skin. The skin, which is delivered as a so-called full skin without subcutaneous fatty tissue in a frozen state, must first be thawed at room temperature and carefully shaved with plenty of water without using any shaving foam to remove the bristles. The skin is then dermatomized or cut to a layer thickness of 800 μm with the aid of an Acculan 3TI battery-powered electric dermatome (Aesculap AG, Tuttlingen, Germany). Circular punched pieces having a diameter of 25 mm are then knocked out of the pieces of skin treated in this way with the help of a corresponding punching tool, for example, a handle punch and are stored shrink-wrapped in PE bags until further use at −20 degrees Celsius (maximum storage period under these conditions up to 12 months).
The permeation studies were performed in static and vertical Franz cells (Glastechnik Gräfenroda, Germany) with a diffusion area of 1.595 cm^2 and an acceptor volume of 10 ml. The acceptor medium used was phosphate buffer having a pH value of 7.4 according to DAB 10, tempered to 32° C. during the entire permeation time and constantly stirred for uniform mixing of the permeated active ingredient. The acceptor medium was completely replaced by fresh one at the scheduled sampling times. Before the pre-prepared skin punches are clamped in the Franz cells and filled with acceptor, the microneedle systems must first be pressed into the top layer of skin using a manufactured pressure adapter, in the sense of a nail gun with an impulse strength of 150 N/cm^2.
Before filling with the acceptor and inserting the Franz cells into the water bath controlled to a temperature of 32° C., the temperature-controlled cell heads are put on or they are prepared with an active heat pack mixture, see also the figures including explanations.
The analytical determination was carried out by means of HPLC on a C18-Inertsil separation column (250×4.6 mm, 5 μm particle size; VDS Optilab, Berlin) by means of UV detection at 282 nm and at 30 degrees Celsius. A mixture consisting of acetonitrile, methanol and 0.02167 m sodium dihydrogen phosphate solution 10:20:85 (v %/v %/v %) and a pH of 3.2 was used as the eluent. The flow rate was 1.0 ml/min and 20 μl were injected.
The analytical determination was carried out by means of HPLC on a C12-Synergi-Max-RP separation column (150×4.6 mm, 4 μm particle size; Phenomenex, Aschaffenburg) by means of UV detection at 273 nm and at 25 degrees Celsius. A mixture consisting of methanol and HPLC water 40:60 (v %/v %) was used as an eluent. The flow rate was 1.0 ml/min and 20 μl were injected.

Compound | lag time (FIG. 2, inventive example with external heat generation (heatable thermostated-water cell head), period up to 6 hours) | amount or rate of release of API, factor greater than that of the reference (FIG. 2, inventive example with heat (heatable cell head) vs reference without heat, up to 6 hours) | lag time (FIG. 2, reference system without additional heat generation, period up to 6 hours) | lag time of reference larger than inventive example by a factor (FIG. 2, reference without heat vs inventive example with heat) | lag time (FIG. 3, inventive example with external heat generation (heatable thermostated-water cell head), period of 60 minutes) | amount or rate of release of API, factor greater than that of the reference (FIG. 3, inventive example with heat (heatable cell head) vs reference without heat, 60 minutes) | lag time (FIG. 3, reference system without additional heat generation, period of 60 minutes) | lag time of reference larger than inventive example by a factor (FIG. 3, reference without heat vs inventive example with heat) | amount or rate of release of API, factor greater than that of the reference (FIG. 4, inventive example with commercial heat pack vs reference without heat, up to 6 hours) | lag time (FIG. 4, inventive example with heat from commercial heat pack (Thermopad; pyrophoric iron, activated carbon, sodium chloride), period up to 6 hours) | lag time (FIG. 4, reference system without additional heat generation, period up to 6 hours) | lag time of reference larger than inventive example by a factor (FIG. 4, reference without heat vs inventive example with heat pack) | lag time (FIG. 5, inventive example with external heat generation (heatable thermostated-water cell head), period of 8 hours) | amount or rate of release of API, factor greater than that of the reference (FIG. 5, inventive example with heat (heatable cell head) vs reference without heat, 8 hours) | lag time (FIG. 5, reference system without additional heat generation, period of 8 hours) | lag time of reference larger than inventive example by a factor (FIG. 5, reference without heat vs inventive example with heat)
CNS(=O)(=O)Cc1ccc2[nH]cc(CCN(C)C)c2c1 [sumatriptan succinate, Sumatriptan succinate] | 20 min | ~5 | 40 min | 2 | 0.5 min | ~4 | 1.0 min | 2 | ~8 | 0.1 min | 0.4 min | 4 |  |  |  | 
Cn1c(=O)c2c(ncn2C)n(C)c1=O [caffeine, Caffeine] |  |  |  |  |  |  |  |  |  |  |  |  | 40 min | ~2 | 100 min | 2.5

Reference: US12208228B2, “Microneedle array comprising a heat-producing element” (LTS LOHMANN THERAPIE-SYSTEME AG, priority 2019, dated 2025)
